Values joined by “and” are separate entries in the source; they are usually repeats but may differ in a detail not shown here. Equal entries are not always repeated. Where two headings read alike, the source gives them in different places.
Key:
human OPRK = assay: biochemical; assay type: binding
human OPRM [1] = molecular target: T1, human OPRM (Homo sapiens, UniProt P35372); set-up: expressed in transfected cells; host or cells: CHO-K1 (cell line provided by Dr. Toll, Torrey Pines Institute); membranes prepared in house; conditions: cited from earlier work
T1 sequence (P35372 whole entry): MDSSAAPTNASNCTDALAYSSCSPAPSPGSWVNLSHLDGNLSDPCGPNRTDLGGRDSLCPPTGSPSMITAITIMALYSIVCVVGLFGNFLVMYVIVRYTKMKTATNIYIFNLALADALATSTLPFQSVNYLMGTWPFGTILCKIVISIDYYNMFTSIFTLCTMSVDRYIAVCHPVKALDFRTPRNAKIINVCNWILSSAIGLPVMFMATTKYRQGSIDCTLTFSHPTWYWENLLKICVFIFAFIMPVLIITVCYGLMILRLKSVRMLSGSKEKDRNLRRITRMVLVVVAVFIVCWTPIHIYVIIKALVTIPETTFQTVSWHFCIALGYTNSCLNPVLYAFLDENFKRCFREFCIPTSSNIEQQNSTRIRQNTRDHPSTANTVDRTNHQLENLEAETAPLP

human OPRM [2] = molecular target: T1, human OPRM; set-up: expressed in transfected cells; host or cells: CHO-K1 (cell line provided by Dr. Toll, Torrey Pines Institute); membranes prepared in house; conditions: cited from earlier work; remark: listed apart in the source
calf OPRM = calf OPRM (Bos taurus, UniProt P79350); conditions: cited from earlier work
Sequence of calf OPRM (P79350 whole entry): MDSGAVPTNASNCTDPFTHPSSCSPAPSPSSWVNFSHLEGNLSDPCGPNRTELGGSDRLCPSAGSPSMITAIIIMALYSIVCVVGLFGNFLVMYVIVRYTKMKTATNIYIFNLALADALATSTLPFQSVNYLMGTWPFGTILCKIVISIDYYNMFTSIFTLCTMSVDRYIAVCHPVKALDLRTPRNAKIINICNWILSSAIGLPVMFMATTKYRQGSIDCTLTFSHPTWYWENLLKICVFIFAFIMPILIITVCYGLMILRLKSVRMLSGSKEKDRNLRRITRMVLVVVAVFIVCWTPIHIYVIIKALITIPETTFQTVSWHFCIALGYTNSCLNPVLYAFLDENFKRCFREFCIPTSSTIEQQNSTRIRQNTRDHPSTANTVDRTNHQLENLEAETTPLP

calf OPRK = calf OPRK (Bos taurus, UniProt Q2KIP6); conditions: calf receptor; literature; cited from earlier work
Sequence of calf OPRK (Q2KIP6 whole entry): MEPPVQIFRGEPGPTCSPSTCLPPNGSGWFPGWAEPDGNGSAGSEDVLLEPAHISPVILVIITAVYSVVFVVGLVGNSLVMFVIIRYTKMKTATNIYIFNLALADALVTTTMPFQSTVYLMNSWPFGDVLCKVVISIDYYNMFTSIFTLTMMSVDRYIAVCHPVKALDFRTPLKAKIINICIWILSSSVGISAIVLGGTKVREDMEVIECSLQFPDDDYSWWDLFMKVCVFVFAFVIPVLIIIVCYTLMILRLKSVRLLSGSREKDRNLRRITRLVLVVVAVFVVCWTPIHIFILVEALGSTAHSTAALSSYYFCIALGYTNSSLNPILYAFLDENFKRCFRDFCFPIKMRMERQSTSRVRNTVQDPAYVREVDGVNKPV

OPRK [3] = molecular target: T2, OPRK (Homo sapiens, UniProt P41145); assay: biochemical; assay type: binding; set-up: expressed in transfected cells; host or cells: CHO-K1; conditions: Ki
T2 sequence (P41145 whole entry): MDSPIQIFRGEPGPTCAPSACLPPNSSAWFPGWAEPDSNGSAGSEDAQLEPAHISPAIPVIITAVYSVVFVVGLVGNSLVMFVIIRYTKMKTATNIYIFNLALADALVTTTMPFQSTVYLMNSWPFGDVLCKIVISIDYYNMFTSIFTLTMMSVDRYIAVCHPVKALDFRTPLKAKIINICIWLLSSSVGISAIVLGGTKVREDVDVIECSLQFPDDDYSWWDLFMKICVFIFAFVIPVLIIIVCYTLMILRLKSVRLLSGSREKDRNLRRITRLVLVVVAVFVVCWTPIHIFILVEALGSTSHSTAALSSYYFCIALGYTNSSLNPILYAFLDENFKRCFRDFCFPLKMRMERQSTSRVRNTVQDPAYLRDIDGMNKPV

OPRK [4] = molecular target: T2, OPRK; assay: biochemical; set-up: expressed in transfected cells; host or cells: CHO-K1; conditions: for Emax: read-out: Efficacy (Emax)
human OPRM [5] = molecular target: T1, human OPRM; assay: biochemical; assay type: binding; set-up: expressed in transfected cells; host or cells: CHO-K1 (cell line provided by Dr. Toll, Torrey Pines Institute); membranes prepared in house; conditions: Ki
human OPRM [6] = molecular target: T1, human OPRM; assay: biochemical; set-up: expressed in transfected cells; host or cells: CHO-K1 (cell line provided by Dr. Toll, Torrey Pines Institute); membranes prepared in house; conditions: for Emax: read-out: Efficacy (Emax)
[7] = molecular target: opioid receptor delta (OPRD) (Bos taurus, UniProt F1N083); conditions: printed in the SEM column; literature; cited from earlier work
Sequence of opioid receptor delta (OPRD) (F1N083 1-372): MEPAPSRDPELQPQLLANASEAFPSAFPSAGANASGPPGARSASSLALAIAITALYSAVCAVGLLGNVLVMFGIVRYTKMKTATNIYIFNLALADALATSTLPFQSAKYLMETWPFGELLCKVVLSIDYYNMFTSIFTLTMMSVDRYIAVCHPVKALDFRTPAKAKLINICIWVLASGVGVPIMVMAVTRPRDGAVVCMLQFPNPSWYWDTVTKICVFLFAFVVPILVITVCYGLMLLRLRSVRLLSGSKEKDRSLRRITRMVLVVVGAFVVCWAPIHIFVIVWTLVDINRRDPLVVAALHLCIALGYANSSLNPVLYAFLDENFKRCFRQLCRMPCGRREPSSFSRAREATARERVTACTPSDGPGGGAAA

OPRK [8] = molecular target: T2, OPRK; assay: cell-based; set-up: host or cells: CHO-K1
[9] = Single ascending oral dose pharmacokinetics of noribogaine in healthy volunteers (plasma and urine, LCMSMS); conditions: for AUC0-216 / AUC0-∞ / Cmax / Tmax / t1/2: mean (SD), n = 6
human OPRM [10] = molecular target: T1, human OPRM; assay type: cell-based; set-up: host or cells: CHO-K1
[11] = from literature (or literature/this work) values
[12] = 30 mg single oral noribogaine, plasma
[13] = 60 mg single oral noribogaine, plasma

## NC(N)=Nc1ccc2c3c([nH]c2c1)[C@@H]1Oc2c(O)ccc4c2[C@@]12CCN(CC1CC1)[C@H](C4)[C@]2(O)C3 [6′GNTI, 6′-guanidinonaltrindole]
Human OPRK; [11]
  ΔpKi = pKi(OPRK) − pKi(OPRM), OPRK Specificity: 1.84
Human OPRM [1]
  Ki: 82 nM
  pKi: 7.1
Human OPRM [2]; activation, literature
  EC50: > 1000 nM
  Efficacy: 0~ %

## COCCC1CC2CN3CCc4c([nH]c5ccccc45)C(C(=O)OC)(C2)C13 (stereo not shown) [18-MC, 18-methoxycoronaridine, reference compound]
Human OPRK; [11]
  ΔpKi = pKi(OPRK) − pKi(OPRM), OPRK Specificity: −0.7
Human OPRK; from values of this work
  ΔpKi = pKi(OPRK) − pKi(OPRM), OPRK Specificity: 0.1
Human OPRK; in these assays
  affinity at human OPRK versus OPRM: equi-affine to both human OPRK and OPRM
Calf OPRM; Glick, Maisonneuve et al. 2000
  reported selectivity at OPRM: 5 ×
Calf OPRM; calf receptor, literature
  pKi: 6.0
Calf OPRK
  Ki: 5100 nM
  pKi: 5.3
OPRK [3]; Table 9 summary column, value of this work
  Ki: 1800 nM
OPRK [3]; [3H]-U69,593
  Ki: 1840 ± 120 nM
OPRK [4]
  EC50: ~16000 nM
  Efficacy (inhibition): −100%
  e-coupling (pKi-pEC50): 0.94~
  e-coupling (pKi-pKe): 0.39
  stimulation of [35S]GTPγS binding to OPRK: failed to stimulate
  Emax: < 5%
OPRK [4]; Ke
  Ki: 2800 nM and 2900 nM and 4300 nM
Human OPRM [5]
  Ki: 2260 nM and 2360 nM
Human OPRM [6]
  stimulation of the OPRM G-protein pathway: failed to stimulate the OPRM G-protein pathway
  Emax: < 5%

## C[C@@H](NC(=O)[C@@H](N)Cc1ccc(O)cc1)C(=O)NCC(=O)N(C)[C@@H](Cc1ccccc1)C(=O)NCCO [DAMGO, [D-Ala2, NMe-Phe4, Gly-ol5]-enkephalin]
Human OPRK; [11]
  ΔpKi = pKi(OPRK) − pKi(OPRM), OPRK Specificity: <−3

## CCC1CC2CC3c4[nH]c5ccc(OC)cc5c4CCN(C2)C13 (stereo not shown) [Ibogaine, ibogaine, reference compound]
Calf OPRM; calf receptor, literature
  Ki: 11000 nM
  pKi: 5.0
[7]
  Ki at OPRD: (OPRD − N.Q.)
Human OPRM [5]
  Ki: 6920 ± 830 nM
Human OPRM [6]
  stimulation of the OPRM G-protein pathway: failed to stimulate the OPRM G-protein pathway
  Emax: -2.9%

## C=C1CC[C@@]2(O)[C@H]3Cc4ccc(O)c5c4[C@@]2(CCN3CC2CC2)[C@H]1O5 [Nalmefene, nalmefene, reference compound]
OPRK [4]
  Efficacy (inhibition): −65%
  e-coupling (pKi-pEC50): 0.92
  e-coupling (pKi-pKe): 0.23
  own reduced signal level to which rival agonist signal is leveled down: 30%
  Emax: 35 ± 4.7%

## Oc1ccc2c3c1O[C@H]1c4[nH]c5c(c4C[C@@]4(O)[C@@H](C2)N(CC2CC2)CC[C@]314)C[C@@]1(O)[C@H]2Cc3ccc(O)c4c3[C@@]1(CCN2CC1CC1)[C@H]5O4 [NorBNI, nor-binaltorphimine, reference compound]
Human OPRK; [11]
  ΔpKi = pKi(OPRK) − pKi(OPRM), OPRK Specificity: 2.0
OPRK [8]; inhibitory component
  e-coupling (pKi-pKe): 0.27
OPRK [8]; inhibitory component against Dynorphin A
  Efficacy (inhibition): −100%
OPRK [4]
  Efficacy (inhibition): −100%
  e-coupling (pKi-pKe): −0.1

## CC[C@H]1C[C@@H]2C[C@H]3c4[nH]c5ccc(OC6OC(C(=O)O)C(O)C(O)C6O)cc5c4CCN(C2)[C@@H]13 (stereo partly shown) [Noribogaine glucuronide, noribogaine glucuronide]
[9]; 30 mg and 60 mg dose groups
  proportion of noribogaine glucuronide Cmax and AUC relative to noribogaine: 3-4%
[9]; [12]
  AUC0-216: 25.7 (9.1) ng · hr/ml
  AUC0-∞: 25.8 (9.3) ng · hr/ml
  Cmax: 1.8 (0.6) ng/ml
  Tmax: 3.0 (0.6) hr
  t1/2: 20.6 (4.9) hr
[9]; [13]
  AUC0-216: 65.0 (21.5) ng · hr/ml
  AUC0-∞: 67.1 (21.9) ng · hr/ml
  Cmax: 4.1 (1.2) ng/ml
  Tmax: 3.8 (1.2) hr
  t1/2: 23.1 (3.0) hr
[9]; plasma, 30 mg and 60 mg noribogaine
  time by which detected in all subjects: ≤ 0.75 h
[9]; plasma, across dose groups
  Mean half-life: 21 to 23 h
  time of peak concentrations after oral noribogaine dosing: 3 to 4 h

## [Met]-Enkephalin
Human OPRK
  ΔpKi = pKi(OPRK) − pKi(OPRM), OPRK Specificity: <−3
Human OPRM [10]
  Efficacy: 100%
Human OPRM [2]
  Efficacy: ~95%
